Experiments:
[1] = molecular target: 5-hydroxytryptamine receptor 1B (Rattus norvegicus, UniProt P28564); assay type: cell membranes, Wistar, Cerebral cortex, Membrane; further: in other assays of this panel Not Active means under 50% inhibition at 10 µM
[2] = molecular target: T1, Cysteinyl leukotriene receptor 1 (Homo sapiens, UniProt Q9Y271); assay type: cell membranes, Membrane; conditions: cho-k1; further: in other assays of this panel Not Active means under 50% inhibition at 10 µM
T1 sequence (Q9Y271 whole entry): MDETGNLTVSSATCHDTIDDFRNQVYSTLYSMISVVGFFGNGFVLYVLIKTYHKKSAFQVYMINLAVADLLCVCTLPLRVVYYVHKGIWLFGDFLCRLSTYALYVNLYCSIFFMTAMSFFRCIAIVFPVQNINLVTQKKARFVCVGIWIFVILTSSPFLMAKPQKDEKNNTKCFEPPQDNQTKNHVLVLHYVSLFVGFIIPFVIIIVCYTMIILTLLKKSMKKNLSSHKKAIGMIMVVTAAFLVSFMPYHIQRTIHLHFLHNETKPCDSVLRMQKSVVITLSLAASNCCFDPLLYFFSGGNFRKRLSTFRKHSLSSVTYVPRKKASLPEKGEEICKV

[3] = molecular target: Protein kinase C alpha type (Homo sapiens, UniProt P17252); assay type: cell-based; conditions: sf9;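 further: inhibition of PKCalpha kinase activity measured in an enzyme assay with histone as the phosphorylation substrate; in other assays of this panel Not Active means under 50% inhibition at 10 µM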
[4] = DRUGMATRIX: GABAA, Chloride Channel, TBOB radioligand binding (ligand: [3H] TBOB); assay type: cell membranes, Rattus norvegicus, Wistar, Cerebral cortex, Membrane; conditions: Not Active = under 50% inhibition at 10 µM
[5] = molecular target: T2, Type-2 angiotensin II receptor (Homo sapiens, UniProt P50052); assay: biochemical; assay type: cell-based, CHO-K1; conditions: cho-k1; further: in other assays of this panel Not Active means under 50% inhibition at 10 µM
T2 sequence (P50052 whole entry): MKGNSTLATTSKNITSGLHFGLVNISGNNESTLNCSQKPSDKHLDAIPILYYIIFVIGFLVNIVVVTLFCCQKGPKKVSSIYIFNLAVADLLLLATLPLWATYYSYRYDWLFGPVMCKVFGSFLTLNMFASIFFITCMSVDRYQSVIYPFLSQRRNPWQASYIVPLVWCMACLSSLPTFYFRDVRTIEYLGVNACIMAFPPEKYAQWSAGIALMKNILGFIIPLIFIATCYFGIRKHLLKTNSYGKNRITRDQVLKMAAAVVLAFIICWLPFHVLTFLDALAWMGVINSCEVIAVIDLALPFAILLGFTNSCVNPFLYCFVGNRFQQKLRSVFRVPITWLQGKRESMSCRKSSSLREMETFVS

[6] = molecular target: Sodium-dependent dopamine transporter (Homo sapiens, UniProt Q01959); assay: DRUGMATRIX: Dopamine Transporter radioligand binding (ligand: [125I] RTI-55); assay type: cell membranes, CHO-K1, Membrane; conditions: Not Active = under 50% inhibition at 10 µM
Glycine receptor = Glycine receptor (Rattus norvegicus, UniProt P22771+P24524+P07727+P20781); assay type: cell membranes, Wistar, Spinal cord, Membrane; further: in other assays of this panel Not Active means under 50% inhibition at 10 µM
[7] = DRUGMATRIX: GABAA, Muscimol, Central radioligand binding (ligand: [3H] Muscimol); assay type: cell membranes, Rattus norvegicus, Wistar, Brain, Membrane; conditions: Not Active = under 50% inhibition at 10 µM

Sequence of Sodium-dependent dopamine transporter (Q01959 whole entry): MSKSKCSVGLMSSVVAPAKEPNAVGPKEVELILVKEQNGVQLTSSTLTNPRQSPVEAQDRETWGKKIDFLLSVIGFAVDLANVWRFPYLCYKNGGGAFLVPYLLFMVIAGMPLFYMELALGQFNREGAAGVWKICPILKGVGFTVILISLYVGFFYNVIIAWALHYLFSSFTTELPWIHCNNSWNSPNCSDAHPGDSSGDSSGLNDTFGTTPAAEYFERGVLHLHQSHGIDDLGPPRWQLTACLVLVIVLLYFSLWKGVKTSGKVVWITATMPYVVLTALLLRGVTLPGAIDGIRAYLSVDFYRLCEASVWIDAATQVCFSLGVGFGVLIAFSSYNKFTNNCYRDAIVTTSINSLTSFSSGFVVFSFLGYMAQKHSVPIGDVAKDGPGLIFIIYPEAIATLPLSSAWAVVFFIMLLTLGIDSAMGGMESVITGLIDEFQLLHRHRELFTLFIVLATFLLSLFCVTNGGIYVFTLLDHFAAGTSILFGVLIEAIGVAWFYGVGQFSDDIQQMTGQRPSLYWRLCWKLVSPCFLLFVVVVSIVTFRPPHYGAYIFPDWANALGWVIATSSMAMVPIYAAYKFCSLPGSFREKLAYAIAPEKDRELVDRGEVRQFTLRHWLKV
Sequence of 5-hydroxytryptamine receptor 1B (P28564 whole entry): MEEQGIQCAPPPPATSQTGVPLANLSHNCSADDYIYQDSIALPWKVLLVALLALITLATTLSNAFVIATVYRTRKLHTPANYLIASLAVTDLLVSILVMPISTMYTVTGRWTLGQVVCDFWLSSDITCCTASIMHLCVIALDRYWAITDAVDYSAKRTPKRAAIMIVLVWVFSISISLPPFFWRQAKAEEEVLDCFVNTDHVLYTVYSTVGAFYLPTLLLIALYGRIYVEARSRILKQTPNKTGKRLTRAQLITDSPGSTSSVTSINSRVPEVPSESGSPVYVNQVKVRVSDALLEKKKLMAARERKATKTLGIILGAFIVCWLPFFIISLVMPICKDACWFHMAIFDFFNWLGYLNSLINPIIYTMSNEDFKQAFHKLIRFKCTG

CC(C)(C)NCC(O)COc1cccc2c1CC(O)C(O)C2 (stereo not drawn) [NADOLOL]
IC50 [1]: Not Active
IC50 [2]: Not Active
IC50 [3]: Not Active
IC50 [4]: Not Active
Ki [4]: Not Active
IC50 [5]: Not Active
IC50 ([6]; cho-k1): Not Active
IC50 (Glycine receptor): Not Active
IC50 [7]: Not Active
Ki [7]: Not Active

C[C@]12CC[C@H]3[C@@H](CCC4=CC(=O)CC[C@@H]43)[C@@H]1CC[C@@H]2O [NANDROLONE]
IC50 [1]: Not Active
IC50 [2]: Not Active
IC50 [3]: Not Active
IC50 [4]: Not Active
Ki [4]: Not Active
IC50 [5]: Not Active
IC50 ([6]; cho-k1): Not Active
IC50 (Glycine receptor): Not Active
IC50 [7]: Not Active
Ki [7]: Not Active

C[C@@H]1C/C=C/C=C/C=C/C=C/[C@H](O[C@@H]2O[C@H](C)[C@@H](O)[C@H](N)[C@@H]2O)C[C@@H]2O[C@](O)(C[C@@H](O)C[C@H]3O[C@@H]3/C=C/C(=O)O1)C[C@H](O)[C@H]2C(=O)O [NATAMYCIN]
IC50 [1]: Not Active
IC50 [2]: Not Active
IC50 [3]: Not Active
IC50 [4]: Not Active
Ki [4]: Not Active
IC50 [5]: Not Active
IC50 ([6]; cho-k1): Not Active
IC50 (Glycine receptor): Not Active
IC50 [7]: Not Active
Ki [7]: Not Active

CN(C)C(=O)Oc1cccc([N+](C)(C)C)c1.[Br-] [NEOSTIGMINE BROMIDE]
IC50 [1]: Not Active
IC50 [2]: Not Active
IC50 [3]: Not Active
IC50 [4]: Not Active
Ki [4]: Not Active
IC50 [5]: Not Active
IC50 ([6]; cho-k1): Not Active
IC50 (Glycine receptor): Not Active
IC50 [7]: Not Active
Ki [7]: Not Active

NC(=O)c1cccnc1 [NIACINAMIDE]
IC50 [1]: Not Active
IC50 [2]: Not Active
IC50 [3]: Not Active
IC50 [4]: Not Active
Ki [4]: Not Active
IC50 [5]: Not Active
IC50 ([6]; cho-k1): Not Active
IC50 (Glycine receptor): Not Active
IC50 [7]: Not Active
Ki [7]: Not Active

CS(=O)(=O)Nc1ccc([N+](=O)[O-])cc1Oc1ccccc1 [NIMESULIDE]
IC50 [1]: Not Active
IC50 [2]: Not Active
IC50 [3]: Not Active
IC50 [4]: Not Active
Ki [4]: Not Active
IC50 [5]: Not Active
IC50 ([6]; read-out: IC50): 14.9 µM
Ki ([6]; read-out: Ki): 11.8 µM
IC50 (Glycine receptor): Not Active
IC50 [7]: Not Active
Ki [7]: Not Active

CN1C(=O)CN=C(c2ccccc2)c2cc([N+](=O)[O-])ccc21 [NIMETAZEPAM]
IC50 [1]: Not Active
IC50 [2]: Not Active
IC50 [3]: Not Active
IC50 [4]: Not Active
Ki [4]: Not Active
IC50 [5]: Not Active
IC50 ([6]; cho-k1): Not Active
IC50 (Glycine receptor): Not Active
IC50 [7]: Not Active
Ki [7]: Not Active

COc1ccc2c(c1OC)C(=O)O[C@@H]2[C@H]1c2c(cc3c(c2OC)OCO3)CCN1C [NOSCAPINE]
IC50 [1]: Not Active
IC50 [2]: Not Active
IC50 [3]: Not Active
IC50 [4]: Not Active
Ki [4]: Not Active
IC50 [5]: Not Active
IC50 ([6]; cho-k1): Not Active
IC50 (Glycine receptor): Not Active
IC50 [7]: Not Active
Ki [7]: Not Active

C[C@@H]1O[C@@H](O[C@H]2C[C@@H](O)[C@]3(CO)[C@H]4[C@H](O)C[C@]5(C)[C@@H](C6=CC(=O)OC6)CC[C@]5(O)[C@@H]4CC[C@]3(O)C2)[C@H](O)[C@H](O)[C@H]1O [OUABAIN]
IC50 [1]: Not Active
IC50 [2]: Not Active
IC50 [3]: Not Active
IC50 [4]: Not Active
Ki [4]: Not Active
IC50 [5]: Not Active
IC50 ([6]; cho-k1): Not Active
IC50 (Glycine receptor): Not Active
IC50 [7]: Not Active
Ki [7]: Not Active

NC(=O)N1c2ccccc2CC(=O)c2ccccc21 [OXCARBAZEPINE]
IC50 [1]: Not Active
IC50 [2]: Not Active
IC50 [3]: Not Active
IC50 [4]: Not Active
Ki [4]: Not Active
IC50 [5]: Not Active
IC50 ([6]; cho-k1): Not Active
IC50 (Glycine receptor): Not Active
IC50 [7]: Not Active
Ki [7]: Not Active

COc1ccnc(C[S+]([O-])c2nc3ccc(OC(F)F)cc3[nH]2)c1OC (stereo not drawn) [PANTOPRAZOLE]
IC50 [1]: Not Active
IC50 [2]: Not Active
IC50 [3]: Not Active
IC50 [4]: Not Active
Ki [4]: Not Active
IC50 [5]: Not Active
IC50 ([6]; cho-k1): Not Active
IC50 (Glycine receptor): Not Active
IC50 [7]: Not Active
Ki [7]: Not Active

NNCCc1ccccc1 [PHENELZINE]
IC50 [1]: Not Active
IC50 [2]: Not Active
IC50 [3]: Not Active
IC50 [4]: Not Active
Ki [4]: Not Active
IC50 [5]: Not Active
IC50 ([6]; cho-k1): Not Active
IC50 (Glycine receptor): Not Active
IC50 [7]: Not Active
Ki [7]: Not Active

CCc1ccc(CCOc2ccc(CC3SC(=O)NC3=O)cc2)nc1 (stereo not drawn) [PIOGLITAZONE]
IC50 [1]: Not Active
IC50 [2]: Not Active
IC50 [3]: Not Active
IC50 [4]: Not Active
Ki [4]: Not Active
IC50 [5]: Not Active
IC50 ([6]; cho-k1): Not Active
IC50 (Glycine receptor): Not Active
IC50 [7]: Not Active
Ki [7]: Not Active

CCCNC(C)C(=O)Nc1ccccc1C (stereo not drawn) [PRILOCAINE]
IC50 [1]: Not Active
IC50 [2]: Not Active
IC50 [3]: Not Active
IC50 [4]: Not Active
Ki [4]: Not Active
IC50 [5]: Not Active
IC50 ([6]; cho-k1): Not Active
IC50 (Glycine receptor): Not Active
IC50 [7]: Not Active
Ki [7]: Not Active

CCN(CC)CCNC(=O)c1ccc(N)cc1 [PROCAINAMIDE]
IC50 [1]: Not Active
IC50 [2]: Not Active
IC50 [3]: Not Active
IC50 [4]: Not Active
Ki [4]: Not Active
IC50 [5]: Not Active
IC50 ([6]; cho-k1): Not Active
IC50 (Glycine receptor): Not Active
IC50 [7]: Not Active
Ki [7]: Not Active

CCN(CC)CCCC(C)Nc1c2ccc(Cl)cc2nc2ccc(OC)cc12 (stereo not drawn) [QUINACRINE]
IC50 [1]: Not Active
IC50 [2]: Not Active
IC50 [3]: Not Active
IC50 [4]: Not Active
Ki [4]: Not Active
IC50 [5]: Not Active
IC50 ([6]; cho-k1): Not Active
IC50 (Glycine receptor): Not Active
IC50 [7]: Not Active
Ki [7]: Not Active

C[C@]12C=CC(=O)C=C1CC[C@H]1[C@@H]3C[C@@H](O)[C@](O)(C(=O)CO)[C@@]3(C)C[C@H](O)[C@@]12F [TRIAMCINOLONE]
IC50 [1]: Not Active
IC50 [2]: Not Active
IC50 [3]: Not Active
IC50 [4]: Not Active
Ki [4]: Not Active
IC50 [5]: Not Active
IC50 ([6]; cho-k1): Not Active
IC50 (Glycine receptor): Not Active
IC50 [7]: Not Active
Ki [7]: Not Active

CC[C@]1(O)C[C@@H]2CN(CCc3c([nH]c4ccccc34)[C@@](C(=O)OC)(c3cc4c(cc3OC)N(C)[C@H]3[C@@](O)(C(N)=O)[C@H](O)[C@]5(CC)C=CCN6CC[C@]43[C@@H]65)C2)C1 [VINDESINE]
IC50 [1]: Not Active
IC50 [2]: Not Active
IC50 [3]: Not Active
IC50 [4]: Not Active
Ki [4]: Not Active
IC50 [5]: Not Active
IC50 ([6]; cho-k1): Not Active
IC50 (Glycine receptor): Not Active
IC50 [7]: Not Active
Ki [7]: Not Active

CCN(C(C)=O)c1cccc(-c2ccnc3c(C#N)cnn23)c1 [ZALEPLON]
IC50 [1]: Not Active
IC50 [2]: Not Active
IC50 [3]: Not Active
IC50 [4]: Not Active
Ki [4]: Not Active
IC50 [5]: Not Active
IC50 ([6]; cho-k1): Not Active
IC50 (Glycine receptor): Not Active
IC50 [7]: Not Active
Ki [7]: Not Active

COBALTOUS CHLORIDE
IC50 [1]: Not Active
Ki [1]: Not Active
IC50 [2]: Not Active
Ki [2]: Not Active
IC50 [3]: Not Active
Ki [3]: Not Active
IC50 [4]: Not Active
Ki [4]: Not Active
IC50 [5]: Not Active
Ki [5]: Not Active
IC50 ([6]; cho-k1): Not Active
Ki ([6]; cho-k1): Not Active
IC50 (Glycine receptor): Not Active
Ki (Glycine receptor): Not Active
IC50 [7]: Not Active
Ki [7]: Not Active

COLISTIN
IC50 [1]: Not Active
Ki [1]: Not Active
IC50 [2]: Not Active
Ki [2]: Not Active
IC50 [3]: Not Active
Ki [3]: Not Active
IC50 [4]: Not Active
Ki [4]: Not Active
IC50 [5]: Not Active
Ki [5]: Not Active
IC50 ([6]; cho-k1): Not Active
Ki ([6]; cho-k1): Not Active
IC50 (Glycine receptor): Not Active
Ki (Glycine receptor): Not Active
IC50 [7]: Not Active
Ki [7]: Not Active
